Source: the NIST ThermoML archive (doi:10.1021/je030127e)

Test: xn = mol fraction of the nth substance listed
Settings: 101.3 kPa, Liquid; for viscosity: Capillary tube (Ostwald / Ubbelohde) method

CCCCN [1-butanamine] + COCCO
Settings | speed of sound, 298.15 K [m/s] | viscosity, 293.15 K [mPa·s] | viscosity, 298.15 K [mPa·s] | viscosity, 303.15 K [mPa·s]
x2 = 0 | 1251.6 | 0.525 | 0.496 | 0.467
x2 = 0.0501 | 1257 | 0.566 | 0.536 | 0.504
x2 = 0.0999 | 1262.3 | 0.613 | 0.578 | 0.544
x2 = 0.1508 | 1267.7 | 0.669 | 0.625 | 0.588
x2 = 0.2001 | 1273.1 | 0.731 | 0.68 | 0.636
x2 = 0.2509 | 1278.4 | 0.801 | 0.743 | 0.691
x2 = 0.3 | 1283.6 | 0.879 | 0.81 | 0.75
x2 = 0.3498 | 1288.8 | 0.964 | 0.886 | 0.815
x2 = 0.4001 | 1294 | 1.053 | 0.966 | 0.885
x2 = 0.4511 | 1299.1 | 1.146 | 1.049 | 0.957
x2 = 0.5001 | 1304 | 1.238 | 1.133 | 1.031
x2 = 0.5496 | 1308.8 | 1.327 | 1.214 | 1.103
x2 = 0.5997 | 1313.5 | 1.412 | 1.29 | 1.17
x2 = 0.6503 | 1318.1 | 1.488 | 1.358 | 1.232
x2 = 0.7 | 1322.4 | 1.552 | 1.415 | 1.286
x2 = 0.7492 | 1326.6 | 1.604 | 1.461 | 1.327
x2 = 0.7999 | 1330.7 | 1.643 | 1.493 | 1.359
x2 = 0.8491 | 1334.5 | 1.671 | 1.516 | 1.379
x2 = 0.8993 | 1338 | 1.686 | 1.525 | 1.389
x2 = 0.95 | 1341.4 | 1.696 | 1.533 | 1.395
